Assay results published in patent US11761966B2, “Nourin gene-based RNA molecular network: novel early diagnostic and prognostic biomarkers for coronary artery disease, unstable angina, STEMI/NSTEMI and heart failure” (Nour Heart, Inc., priority 2018, dated 2023).
“Also recorded” adds a separate entry of the source.

Key:
[1] = tested on: intact AMI dog model of LAD occlusion; assay: Intact AMI dog model of LAD occlusion for 1 hour followed by reperfusion for 2 hours; type: in vivo; details: for myocardial cell injury (histology): vs control (saline) group
Description: During ischemia, myocardial ATP levels decrease by 65% at 15 minutes and by 90% at 40 minutes, thus contractile performance in vivo decreases precipitously and ceases when only 20% of ATP and 75% of creatine phosphate are depleted. […] ATP synthesis continued during ischemia and its depletion was delayed resulting in over 85% preservation of pre-ischemic ATP level with a loss of only 15%, and 97% preservation of the CrP (loss of 3%) during ischemia. This significant preservation is crucial since ATP depletion of more than 20% ceases contractility. Control saline-treated hearts maintained only 66% of the ATP, with a loss of 34%, resulting in loss of reperfusion cardiac contractility. […] On the other hand, contractile function of control saline dogs was ceased completely after LAD occlusion and never recovered during reperfusion.

[2] = tested on: intact canine model of cold cardioplegic arrest; assay: Intact canine model of cold cardioplegic arrest and aortic cross-clamping (bypass); type: in vivo, dog
Description: Dogs were injected intravenously with saline or CCr (500 mg/kg) for 1 hour before initiating the experiment.
Atrial fibrillation (AF) induces cardiac structural remodeling and there is a need to develop more mechanism-directed AF therapies that use the mitochondria as a novel potential therapeutic target in AF.

[3] = tested on: non-heartbeating dog model of heart transplantation; assay: Non-heartbeating dog model of heart transplantation (warm ischemic arrest, ex vivo perfusion); type: in vivo
Description: Dog hearts underwent 1 hour of global warm ischemic arrest then hearts were explanted and perfused ex vivo for an additional 4 hours with a cold lactated ringers solution containing Cyclocreatine, while control hearts received cold lactated ringers solution alone. […] Similarly, the myocardium of the CCr dog maintained a tissue pH of 7.04±0.1 during the warm ischemia period of 1 hour and throughout the ex vivo perfusion interval, which was close to its baseline level of 7.11. On the other hand, tissue pH in control hearts fell to a nadir of 6.00±0.25 during the induction of warm ischemia and never returned back to baseline levels during the ex vivo preservation period.

[4] = tested on: Yorkshire pigs; assay: Aortic cross-clamping for 30 minutes in Yorkshire pigs (paraplegia); type: in vivo, pig; details: 30 minutes aortic cross-clamping, 4 days survival
From the text: The relationship between hypoxia and AD could open the avenue for effective preservation and pharmacological treatments of this neurodegenerative disease by using new therapeutic drugs like the novel bioenergetic drug, CCrP. CCrP provides protection of heart muscle against ischemic injury in CAD, UA, AMI, HF and cardiac surgical patients and thus save ischemic muscles from progressing to necrosis and heart failure, and will be protective against ischemic injury in stroke and AD. […] Since paraplegia following surgery of the descending thoracic aorta is a serious complication in adult and pediatric surgery, we tested the neuroprotective effect of Cyclocreatine in Yorkshire pigs which underwent 30 minutes of aortic cross-clamping then left to survive for 4 days. […] As indicated in Example 17, similar to heart tissue (Nourin-1), Nourin protein was quickly released within 5 minutes by brain (Nourin-2) and spinal cord (Nourin-3) in response to ischemia. Because of the great similarities between heart and brain and that they are both require high demand of ATP, CCrP will be as effective in preventing ischemic injury and restoring neurologic function in stroke and AD, similar to HF.

[5] = Crossing of the blood-brain barrier

NC1=NCCN1CC(=O)O [Cyclocreatine]
preservation of pre-ischemic ATP level ([1]; CCr 60 minutes before LAD occlusion for 1 hour, saline 66%): over 85%
loss of ATP ([1]; CCr 60 minutes before LAD occlusion, saline 34%): 15%
neutrophil accumulation into the myocardium ([1]; at the end of 2 hours reperfusion): reduces neutrophil accumulation
loss of CrP ([1]; during ischemia): 3%
preservation of the CrP ([1]; during ischemia): 97%
circulating Nourin protein in plasma ([1]; during the 2 hour reperfusion): inhibiting the levels of circulating Nourin protein
contractile function restored ([1]; immediately at reperfusion and for an additional 2 hours): over 80%
myocardial cell injury (histology) [1]: significantly reduced myocardial cell injury
myocardial cell injury (histology) ([1]; listed as CCr): markedly less myocardial cell injury
post-bypass cardiac output, of the baseline function ([2]; CCr 500 mg/kg IV, throughout 4 hours of reperfusion, control 60%): over 90%
resumption of contractility during reperfusion ([2]; all control dogs required defibrillation, listed as CCr): without arrhythmias; also recorded: without the need for defibrillation
myocardial tissue pH ([3]; 1 hour warm ischemia and ex vivo perfusion, baseline 7.11, control nadir 6.00±0.25): 7.04±0.1
time to stop beating and develop asystole ([3]; after exsanguination, control average 2 minutes): 9 min
intracellular edema (diffusion weighted MRI) ([3]; compared to control): Reduced intracellular edema
myocardial tissue lactic acidosis (spectroscopic MRI) ([3]; compared to control): Reduced myocardial tissue lactic acidosis
cell injury marker Malondialdehyde ([3]; compared to controls): Reduced level
myocardial ATP content ([3]; compared to controls): Three-fold increase
reduction of Caspase enzyme activities, of baseline ([3]; control dogs 3.86-fold increase over baseline): 25%
ability to stand and walk [4]: Majority of Cyclocreatine-treated animals were able to stand and walk
crossing of the blood-brain barrier [5]: crosses the blood-brain barrier; also recorded: crosses the blood brain barrier
